The subject of test [1] is RCASBP(A)-EGFP (ASLV-A) in 293(TVA800) cells. The test is classed as cell-based, avian sarcoma and leukosis virus.
Test [2] has as its system RCASBP(A)-EGFP (ASLV-A) in 293(TVA950) cells. It counts as cell-based, avian sarcoma and leukosis virus.
Where [3] appears, read: 30 mM NH4Cl for 10 hours, added at 20 minutes or later after initiating infection.
Where [4] appears, read: 30 mM NH4Cl for 10 hours, added at time of initiating infection or 10 minutes later.
Setting [5] is: 6 hour block with 30 mM NH4Cl, QPCR.
Where [6] appears, read: 6 hour block with 30 mM NH4Cl, flow cytometry.
The mark [7] stands for this setting: 15 mM MβCD, 15 minutes, no NH4Cl.

On to `Cl.N` [NH4Cl, ammonium chloride], for which the “effect upon viral infectivity (QPCR)” value in test [1] (setting [3]) and in test [2] (setting [3]) was “greatly reduced effect” each time. Also, the “effect on infection (QPCR of reverse-transcribed DNA)” value in test [1] (setting [4]) and in test [2] (setting [4]) was “complete block” each time. In addition, the “viral infection during the period of inhibitor treatment” value in test [1] (30 mM NH4Cl, 6 hours) is “completely arrested”; in test [2] (30 mM NH4Cl, 6 hours), “completely arrested”. Besides, the “level of infection (late viral DNA products) after NH4Cl release, relative to untreated cells” value in test [1] (setting [5]) is given as “approximately 60%”. Besides, the figures for the “efficiency of infection (EGFP-positive cells) relative to untreated cells” value in test [1] (setting [6]) and in test [2] (setting [6]) were 85% and 20%, respectively. Moreover, the “infectivity on increasing time of NH4Cl treatment to 12 hours” value in test [1] (12 hours NH4Cl, data not shown) is on record as “did not affect”; in test [2] (12 hours NH4Cl, data not shown), “further decrease”. The “decrease in viral infectivity” value in test [2] (6 hour 30 mM NH4Cl, irrespective of whether cyclodextrin had been added) is “approximately 80%”. In addition, the “number of viral DNA products after NH4Cl release, relative to untreated cells” value in test [2] (setting [5]) amounted to 10%.

In the case of methyl-β-cyclodextrin [MβCD], the loss of infectivity in test [1] (15 mM MβCD 15 minutes combined with 6 hour 30 mM NH4Cl block at time of initiating infection) was found to be 50%. In addition, the “effect of cyclodextrin treatment by itself on viral infectivity” value in test [1] (setting [7]) and in test [2] (setting [7]) was “only a minor effect” each time.

The values are drawn from patent publication US7598072B2 (priority 2003, dated 2009).
